The results in this text go back to US4444776A, “Dipyrido (4,3-B) (3,4-F) indoles, process for obtaining them, therapeutical use and pharmaceutical compositions” (priority 1977, dated 1984).

The subject of one data set is L1210 leukemia. Description: Test 16: structure-activity of R'1 substitution, L1210 (Table XII). It is filed as in vivo, mouse (C57B16xDBA/2)F1. On the set-up: MST: unit not given here. On the procedure: Test 16: Relationship between structure and activity of various dipyrido indoles differing by the R'1 substitution.
L1210 leukemia has been maintained by weekly passages on (C57B16xDBA/2)F1 mice. On day 0, mice were inoculated by I.P. route with various numbers of L1210 ascitic tumor cells in volumes of 0.1 ml. Subsequently as indicated, drugs were administrated in Ca^++ and Mg^++ free PBS solutions (Gibco) or in Mac Coy's medium (Gibso or Microbiological Associates). […]

Another data set concerns L 1210 leukemia. Kind of data set: Test 1: antitumoral properties on L 1210 leukemia (Table I). It is filed as in vivo, mouse. To be noted: for ILS % / Number of cells found / Number of cells killed / Surviving mice: 0.1 mg/mouse (5 mg/kg), J+1. On the procedure:
The lower animal antitumoral properties of the compounds according to the invention have been determined by their curative action on inoculated test L-1210 leukemia. [ZUBROD C. G., Proc. Nat. Acad. Sci. 1972, 69, 1042-1047 and SCHEPARTZ SA. SCREENING, 1971, CANCER Chemother. Rep. Part 3 vol.2 p.3].
This leukemia is maintained in ascitic form by passage (i.p. route) on CBDl (C57 B16×DBA/2)F1 mice. The preparation to be tested are injected by the intraperitoneal route at least one day after the inoculation of the cells (one injection only). The results are expressed in increased life span per cent (ILS %) according to KESSEL et al. Cancer Res. 1971, 31, 1883-1887) or in percentage of the number of cells killed by the product (the survival of the animals is proportional to the number of cells injected).
The following tests were made in groups of 10 mice, unless stipulated to the contrary.
Test 1: Study of the antitumoral properties of the compounds of the invention on L 1210 leukemia
The lower animal antitumoral properties of the compounds according to the invention were determined by their curative action on test inoculated L 1210 leukemia.
This leukemia was maintained on CBD 1 (C 57 B 16×DBA/2) F1 mice. The compounds to be tested were injected by the IP route one or more days after the inoculation of the cells (single injection). The results obtained, shown in table I hereinafter, are expressed in percentage of increase of life span (ILS %) and in percentage of the number of cells killed by the compound to be tested, the survival of the animals being proportional to the number of cells injected.
The percentage of the like span ILS % (Cancer. Res. 1971, 31, 1883-1887) is the following ratio: [formula] S^t =survival of the treated animals S^c =survival of the control animals

For data set [1], the system named is Moloney virus / viro-induced Moloney sarcoma. Kind of data set: Test 3: development of the viro-induced Moloney sarcoma. It is filed as in vivo, new-born mice. To be noted: J+1. The text has this:
The study of the development of the MOLONEY viro-induced sarcoma (Nat. Cancer. Inst. Monograph 22, 139-142, 1966) has also made it possible to determine that the compounds according to the invention are antiviral and antitumoral agents in lower animals.
Test 3: Study of the development of the viro-induced Moloney sarcoma
The injection of Moloney virus [C. Jasmin et al. J. Nat. Cander Inst. 1974 53 469-474] by the intramuscular i.m. route into new-born mice led after 10 days to the formation of a sarcoma. The appearance of the tumour was proportional to the dose of virus injected. The viral inoculum was constituted by a tumor homogenate diluted to 1/250, this corresponding to 10 TID 50, i.e. to the dose of virus inducing the appearance of a tumour in 50% of the animals infected. At this dose, 80 to 100% of the animals developed a tumour, and 100% of the survivors became leukemic. The experiment thus consisted in noting the number of mice presenting tumours, the regression, or not, of these tumours and finally in sacrificing the surviving animals after 2 months and in noting the presence or absence of splenomegaly (evidence of a leukemia). The virus was inoculated into new-born mice of 3 to 5 days by the IM route, and the mice received the following day (J+1) or five hours after injection (JO+5 hours) the product to be tested by the IP route.

The subject of the next data set is new-born mice. Description: Test 4: toxicity on new-born mice, IP. It is filed as in vivo, mouse. The text has this: (§1) Test 4: Investigation of the toxicity
(§2) The toxic dose has been sought, on adult ([…]×DBA/2) Fl mice and on new-born mice, of the compounds of the invention by injection by the IP route. The results obtained are given hereinafter:
(§3) 2-On new-born mice (IP route)

The nature of data set [2]: Test 4: toxicity on new-born mice, IP. It is filed as in vivo, mouse. To be noted: mouse, in vivo, read-out: dead mice (converted).
From the text: as §1, §2, §3

The test system of data set [3] is tumoral strain derived from the murine leukemia due to the C. FRIEND virus. Kind of data set: Test 7: antitumoral activity in vitro on Friend leukemia tumoral strain. It is filed as cell-based. To be noted: HUM = 1. The procedure: Test 7: Study of the antitumoral activity in vitro
This activity was measured on a tumoral strain derived from the murine leukemia due to the C. FRIEND virus.
The tumoral cells multiply in suspension in a "RPMI 1640" medium (Catalogue of GIBCO Bio-cult. Ltd. Washington Road, Sandyford Industrial Estate, PAISLEY PA 3 4EP, Renfrewshire, Scotland) supplemented with 20% of embryonary calf serum, penicillin and streptomycine. The duplication time of these cells is 11 hours. The growth fraction is equal to 1 or very close to 1 (all the cells are in the cycle). The cultures are sub-culturedat time t=0 at the concentration of 2.10^5 cells per ml in Falcon dishes containing 4 ml of medium. After twenty four hours, the product to be tested was added, i.e. at a moment when the cultures are in exponential phase of growth. Twenty four hours after the addition of the product, the cells are counted and the percentage of living cells determined by an exclusion test using "trypan" blue.

The mark [4] stands for this setting: 10^4 cells, 5 mg/kg, day +1, control MST 11.8.

Like-named read-outs stand apart in the source and are kept apart here.

Take `Cc1c2cc[n+](C)cc2c(C)c2c1[nH]c1ccc(O)cc12` [HUM, 2N--methyl-9-hydroxy-ellipticinium acetate, reference compound]: in the data set with L1210 leukemia (10^3 cells, 5 mg/kg, day +1), the 60 days surv. is recorded as 3, the ILS % was 22.15%, the MST is reported as 16.86 and the Range of death is 14-20. In the data set on L1210 leukemia (setting [4]), the ILS % is recorded as 22.6%, the MST is 14.9 and the Range of death is 14-20. In addition, in the data set on L 1210 leukemia (10^3 cells), the ILS % is 22.15%, the “Number of cells found” value amounted to 60, the “Number of cells killed” value was 94% and the Surviving mice is recorded as 3/10. The ILS % with L 1210 leukemia (10^4 cells, IP) is listed as 22.6%. Also, in the data set with L 1210 leukemia (10^4 cells), the “Number of cells found” value came to 400, the “Number of cells killed” value is reported as 96% and the Surviving mice is recorded as 1/10. In data set [1] (1 μg/mouse (0.5 mg/kg)), this molecule displayed an animals survived of 90%, a mice presenting tumours of 30%, a mice with leukemia of 33% and a tumours regressed of 90%. In data set [1] (5 μg/mouse (2.5 mg/kg)), the “animals presenting a tumour” value is 20%, the mice leukemic came out at 10% and the tumour regression stood at 100%. Besides, in the data set on new-born mice (5 μg: 2.5 mg/kg), the appearance of mice entry is “mice puny in appearance”. Also, in the data set on new-born mice (10 μg: 5 mg/kg), the appearance of mice entry is on record as “mice puny in appearance”. Further, the mortality in data set [2] (5 μg: 2.5 mg/kg) is 37.5%. Besides, the mortality in data set [2] (10 μg: 5 mg/kg) was 37.5%.
On to `Cc1c2cc[n+](C)cc2c(C)c2c1[nH]c1cc[n+](C)cc12` [Example 2, 2,5,9,11-tetramethyl dipyrido [4,3-b][3,4-f] indolinium diacetate], for which, in the data set with L1210 leukemia (10^4 cells, 20 mg/kg, day +4), the 60 days surv. is listed as 0, the ILS % is given as 0.9%, the MST is 11.3 and the Range of death is 10-17. The “Activity (ratio of the LD50 of HUM to the LD50 of the product tested)” value in data set [3] is reported as 0.2.
For the molecule `Cc1c2ccnc(Cl)c2cc2c1[nH]c1ccncc12` [Example 6, 1-chloro-5-methyl-dipyrido [4,3-b][3,4-f] indole], in the data set on L 1210 leukemia (0,1 mg/mouse), the “toxicity in L 1210 test” value is listed as “toxic”. For the same molecule, the “ILS % (difference with the controls)” value with L 1210 leukemia (0,1 mg/mouse, 10^4 and 10^3 cells) is “no difference”. The “Activity (ratio of the LD50 of HUM to the LD50 of the product tested)” value in data set [3] was found to be 0.3.
